Measurements as given in the METLIN SMRT retention time set (Domingo-Almenara et al. 2019).

Test: gradient 5% acetonitrile 3 min, to 50% in 2 min, to 85% in 15 min, held 3 min, 100 µL/min
Conditions: column: Zorbax Extend-C18 2.1 x 50 mm; eluents: water / acetonitrile, 0.1% formic acid
How it was run: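 In both positive and negative ionization mode, a quadrupole time-of-flight mass spectrometer coupled to HPLC analyzed pure standards run in mixtures of ~100 molecules. The Zorbax Extend-C18 column (2.1 × 50 mm, 1.8 μm) was operated at 100 μL/min with water and acetonitrile, each containing 0.1% formic acid. The dead volume was 40 μL and the dwell volume 900 μL. Retention time came from adduct peaks that were computationally picked and individually inspected by hand.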

RP-LC retention time	SMILES
739 s	Cc1ccn2cc(-c3ccc(NC(=O)c4ccc(C(F)(F)F)cc4)cc3)nc2n1
925 s	CC(=O)N1c2ccc(S(=O)(=O)N3CCCCCC3)cc2CC1C(=O)NC(C)c1ccccc1 (stereo not drawn)
1130 s	Cc1sc(C)c(S(=O)(=O)N2CCCC2)c1-c1cc(C(F)(F)F)on1
980 s	CCOC(=O)c1c(S(=O)(=O)N2CCC(C(=O)Nc3cc(C)cc(C)c3)CC2)c(C)n(CC)c1C
638 s	COCc1nc2cccnc2n1C1CCN(C(=O)Nc2ccc(OC)c(OC)c2)CC1
842 s	Cc1cccc(CN2CCCn3nc(C(=O)NCCCOC(C)C)cc3C2=O)c1
561 s	CN1CCN(c2nc3ccc(NC(=O)C4CC(=O)N(c5ccccc5)C4)cc3s2)CC1 (stereo not drawn)
952 s	CCCS(=O)(=O)c1nc2ccc(NS(=O)(=O)c3cc(F)cc(F)c3)cc2s1
900 s	O=S(=O)(NC1CCCC1)c1ccc(-c2nnc(C3CCC3)o2)o1
863 s	CN(CCc1noc(COc2ccccc2)n1)C(=O)Cc1ccccc1
670 s	CN(CC1CCOCC1)C(=O)Nc1ccc2c(c1)OCCO2
900 s	COc1cccc(CC2C(=O)Nc3ccc(Cl)cc32)c1OC (stereo not drawn)
1140 s	CCN1C(=O)COc2cc(-c3noc(C(=O)N4CCN(c5cccc(Cl)c5)CC4)n3)ccc21
586 s	COc1ccc(-c2cc3nc(C)cc(Nc4ccc(C(N)=O)cc4)n3n2)cc1OC
678 s	Cc1noc2nc(C)n(CC(=O)NC3CCCC3)c(=O)c12
1010 s	O=C(Nc1nnc(SCc2cccc(Cl)c2)s1)c1ccccc1C(F)(F)F
666 s	CC(=O)Nc1ccc(S(=O)(=O)N2CCC(C(=O)N3CCN(c4ncccn4)CC3)CC2)cc1
773 s	O=C(C1=NNc2ccccc2S1(=O)=O)N1CCCCC1
621 s	CCn1c(=O)c(N2CCCC(C(=O)NCCCN3CCOCC3)C2)nc2cccnc21 (stereo not drawn)
570 s	CCCN1CCN(C(=O)C2CCN(c3cnn(CCC)c(=O)c3)CC2)CC1
683 s	COC(=O)c1ccc(CSc2nnc(CNC(=O)c3ccccc3)o2)o1
879 s	O=C(CC1(O)C(=O)Nc2c(Cl)ccc(Cl)c21)c1ccc(Cl)cc1Cl (stereo not drawn)

RP-LC retention time	SMILES
990 s	Cc1cc2nn(CC(=O)NCc3ccccc3)c(=O)n2c(Nc2ccccc2C)n1
597 s	COCCN1CCC2(CC1)CN(Cc1cc(OC)ccc1OC)Cc1ccccc1O2
628 s	CCc1cc(=O)n(CC(=O)N(CC)c2ccccc2)c(N)n1
627 s	COc1ccc(S(=O)(=O)Nc2ccc(-c3cn4ccc(C)nc4n3)cc2)cc1OC
652 s	Cc1nn(C)cc1C(C)NC(=O)C1CCN(c2cnn(Cc3ccccc3)c(=O)c2)CC1 (stereo not drawn)
1140 s	CCCn1cc(C(=O)NCc2ccc(C)cc2)c(S(=O)(=O)N2CCC(C)CC2)n1
902 s	O=C(CCc1nc(N2CCCCC2)c2c(-c3ccc(F)cc3)noc2n1)N1CCOCC1
1060 s	CCCN1C(=O)COc2ccc(-c3noc(C4CC(=O)N(c5ccc(C)c(C)c5)C4)n3)cc21 (stereo not drawn)
1180 s	COc1ccc2c(c1)-c1nc(NC(=O)c3ccc(Cl)cc3)sc1CC2
783 s	COCCNc1c(-c2cccc(F)c2)nc2sc(C(=O)N3CCCC3)c(C)n12
796 s	O=C(Nc1ccc2c(c1)OCCO2)N1CC[C@@H]2CN(Cc3ccccc3)[C@@H]2C1
636 s	COC(=O)c1c(C)[nH]c(C(=O)N2CCC(CC(=O)N3CCOCC3)CC2)c1C
984 s	CCc1nc(-c2csc(S(=O)(=O)N3CCC(C(=O)NCc4ccccc4Cl)CC3)c2)no1
580 s	Cc1cnc(C)n1C1CCN(C(=O)c2cccn2C)C1 (stereo not drawn)
902 s	Cc1ccc(N2CCC(NC(=O)Nc3ccc(C)c(C)c3)C2=O)cc1 (stereo not drawn)
734 s	COCCc1noc(-c2cnc3nc(C)ccc3c2NC2CCCCCC2)n1
964 s	COc1ccc(-c2nnc(-c3cc(S(=O)(=O)NCc4ccco4)ccc3Cl)o2)cc1
838 s	O=C(NCCc1ccc(Cl)cc1)C1CCCN(c2ncnc3c2nc2n3CCCCC2)C1 (stereo not drawn)
674 s	COc1cccc2cc(C(=O)NCCn3nc(C)cc3C)oc12
1050 s	COc1ccc(-c2nc(-c3cn(-c4ccc(C)cc4)nn3)no2)cc1OC
676 s	CCN(CC)C(=O)C1CCC(=O)N(c2ccc(OC)cc2)C1c1ccc(OC)c(OC)c1 (stereo not drawn)
659 s	O=C(NC1CCCCC1)N1CCC(N2C(=O)C3(CCCCC3)C2c2ccncc2)CC1 (stereo not drawn)

RP-LC retention time	SMILES
680 s	CC(=O)N1CCN(C(=O)CN2C(=O)C3CCCCN3c3ccc(S(=O)(=O)N(C)C)cc32)CC1 (stereo not drawn)
718 s	O=C(NCCc1csc(C2CCCN(C(=O)C3CCCC3)C2)n1)C1CCC1 (stereo not drawn)
1240 s	Cc1nn(-c2ccc(F)cc2)c2nc(N3CCCC(C(=O)NC4CCCCCC4)C3)sc12 (stereo not drawn)
580 s	O=C(Nc1ccc(OCC(=O)N2CCN(c3ccccn3)CC2)nc1)C1CC1
1060 s	CCn1nc(C(=O)Nc2nc3c(s2)CCc2ccccc2-3)cc1C
890 s	CCc1csc(-c2ccc(N3CCN(C(=O)c4ccc(F)cc4F)CC3)nc2)n1
879 s	Cc1noc(-c2cccc(OC3CN(C(=O)NCCc4ccccc4)C3)c2)n1
583 s	Cn1c(SCC(=O)Nc2ncn[nH]2)nc2ccsc2c1=O
969 s	Cc1c(C(=O)NCC(C)C)cnn1-c1cc(-c2nc(C3CC3)no2)ccn1
600 s	CNC(=O)NC1CCN(C(=O)c2ccc(F)cc2)C1 (stereo not drawn)
668 s	CCOc1ccc(NCC(O)Cn2c3ccccc3n3c(=O)cc(C)c(C#N)c23)cc1 (stereo not drawn)
888 s	CC(=O)NCc1ccc(-c2noc(-c3cc(Cl)ccc3F)n2)s1
962 s	COc1ccc(-c2csc(NC(=O)c3ccc(C)o3)n2)cc1
715 s	COc1ccc(CNC(=O)c2cnc(OC)nc2)c(OC)c1
692 s	O=C(CCCc1ccccc1)N1CCN(c2nc(CN3CCCCC3)cs2)CC1
1160 s	CCc1ccccc1NC(=O)N1CCc2nc(-c3ccc(Cl)cc3)ncc2C1
1140 s	N#Cc1ccc(-c2csc(NC(=O)c3ccc(Cl)cc3)n2)cc1
557 s	O=C(CCc1nc2ccccc2[nH]1)N1CCC(c2noc(-c3ccncc3)n2)C1 (stereo not drawn)
760 s	CCOC(=O)N1CCC(NC(=O)c2csc(-n3cccc3)n2)CC1
957 s	Cc1ccc2[nH]cc(CCNC(=O)c3ccc(Cl)cc3Cl)c2c1
900 s	COc1cccc(CNC(=O)C2(C)CCCN(C(=O)Nc3cc(Cl)c(OC)cc3OC)C2)c1 (stereo not drawn)
728 s	COCCc1noc(-c2cnc3nc(C)ccc3c2Nc2cccc(C)c2)n1

RP-LC retention time	SMILES
755 s	CC1CN(Cc2nc3c(c(=O)n(C)c(=O)n3C)n2Cc2ccc(Br)cc2)CC(C)O1 (stereo not drawn)
868 s	O=C(Cn1c(=O)oc2ccc(C(=O)N3CCCC3)cc21)N1CCC(Cc2ccccc2)CC1
1110 s	Cc1ccccc1-n1c(=O)c2sccc2n(Cc2nc(-c3cccc(Br)c3)no2)c1=O
960 s	CCCn1c(=O)sc2cc(S(=O)(=O)N3CCC(C(=O)NCc4ccc(C)o4)CC3)ccc21
691 s	CCc1nc(N2CCC(C(=O)NCc3cc(OC)ccc3OC)CC2)c2c(C)scc2n1
874 s	Cc1ccc(NC(=O)CCCn2cccc2)cc1F
626 s	Cn1cc(-c2cc3n(n2)CCC(=O)N3CC(=O)N2CCN(c3ccccn3)CC2)c2ccccc21
617 s	O=C(NCc1cccs1)c1ccc2ncnc(N3CCCC3)c2c1
859 s	CCc1noc(NC(C)=O)c1-c1ccc(C)c(S(=O)(=O)Nc2cc(Cl)c(OC)cc2OC)c1
610 s	CC(C)NC(=O)N1CCCC(Cn2cnc3cccnc32)C1 (stereo not drawn)
1080 s	COc1ccccc1-c1nnc(-c2cc(S(=O)(=O)N3CCCCC3)ccc2Cl)o1
825 s	COc1ncc(C(=O)Nc2ccc(F)c(Cl)c2)c(C)n1
749 s	Cc1ccc(NC(=O)C2CCN(c3nnc4ccc(Cl)cn34)CC2)c(F)c1
1080 s	CCc1nn2c(CNC(=O)c3ccc(C(C)C)cc3)c(-c3ccccc3)nc2s1
1000 s	Cc1ccc2c(c1)N(S(C)(=O)=O)CCC(C(=O)Nc1ccc(Cl)cc1C)O2 (stereo not drawn)
1060 s	CCOc1cccc(-c2noc(Cn3c(=O)n(Cc4ccc(OC)cc4)c(=O)c4sccc43)n2)c1
606 s	c1nc2c(c(NCc3ccc4c(c3)OCO4)n1)CCC2
933 s	COc1ccc(C)cc1NS(=O)(=O)c1ccc2c(c1)C(=O)N(C)c1ncccc1O2
794 s	COc1ccc(C2CNC(=O)C2)cc1OC1CCCC1 (stereo not drawn)
871 s	Cc1cc(OCC(=O)NCc2ccccc2Br)nc(N2CCN(c3ccccc3)CC2)n1
759 s	Cc1ccc(C)c(CNC(=O)C2CCCN(c3cnc4nccnc4c3)C2)c1 (stereo not drawn)

SMILES	RP-LC retention time
COc1ccc2c(c1)C1(CCN(C(=O)c3ccc(C)c(F)c3)C1)C(=O)N2C (stereo not drawn)	610 s
